Experiments:
Potassium Channel [KATP] = Potassium Channel [KATP] (Cricetus cricetus, UniProt Q09427); experiment: Safety screen; format: binding, hamster
Procedure: (§1) Blood cell counts, kinase profiler, safety screen, bacterial cytotoxicity, Ames, micronucleus assays were performed by the company Eurofins (France). The kinase profiler was performed by the company Eurofins (Discovery, Panlab and Cerep).

PRKG2(h) = PRKG2(h) (Homo sapiens, UniProt Q13237); experiment: Kinase Profiler; format: biochemical
Procedure: as §1

B-Raf(h) = B-Raf(h) (Homo sapiens, UniProt P15056); experiment: Kinase Profiler; format: biochemical
Procedure: as §1

CK1ε(h) = CK1ε(h) (Homo sapiens, UniProt P49674); experiment: Kinase Profiler; format: biochemical
Procedure: as §1

MYLK2(h) = MYLK2(h) (Homo sapiens, UniProt Q9H1R3); experiment: Kinase Profiler; format: biochemical
Procedure: (§2) The kinase profiler was performed by the company Eurofins (Discovery, Panlab and Cerep).

DDR2(h) = DDR2(h) (Homo sapiens, UniProt Q16832); experiment: Kinase Profiler; format: biochemical
Procedure: as §1

Ret(h) = Ret(h) (Homo sapiens, UniProt P07949); experiment: Kinase Profiler; format: biochemical
Procedure: as §2

Adenosine A2A = Adenosine A2A (Homo sapiens, UniProt P29274); experiment: Safety screen; format: binding
Procedure: as §2

Calcium Channel N-Type = Calcium Channel N-Type (Rattus norvegicus, UniProt Q02294); experiment: Safety screen; format: binding
[1] = system: Calcium Channel L-Type, Phenylalkylamine; experiment: Safety screen; format: binding, rat
Ros(h) = Ros(h) (Homo sapiens, UniProt P08922); experiment: Kinase Profiler; format: biochemical
Procedure: as §1

DYRK2(h) = DYRK2(h) (Homo sapiens, UniProt Q92630); experiment: Kinase Profiler; format: biochemical
Procedure: as §2

Aurora-B(h) = Aurora-B(h) (Homo sapiens, UniProt Q96GD4); experiment: Kinase Profiler; format: biochemical
Procedure: as §1

LOK(h) = LOK(h) (Homo sapiens, UniProt O94804); experiment: Kinase Profiler; format: biochemical
Procedure: as §2

RAC1 = biological target: T1, RAC1 (Mus musculus, UniProt P63001); experiment: RAC-GTP pull-down assay, EGF-stimulated NIH/3T3 fibroblasts; format: cell-based; conditions: 10^-5 M, 1 h, EGF 10 ng/mL 5 min
T1 construct: endogenous in cells; host or cells: NIH/3T3 fibroblasts (ATCC CRL-1658), EGF-stimulated
Procedure: Figure 2 Identification of a new RAC1 inhibitor (A) Effect of A41 and NSC23766 on ruffle formation (white arrows) induced by EGF (10 ng/mL) in NIH 3T3 cells in serum-free culture medium (CTL). Inhibitors were added at indicated concentration 1 h prior to EGF stimulation. To assess cytoskeleton organization, cells were incubated with Alexa Fluor 488 phalloidin to visualize F-actin. Results shown are representative of 3 independent experiments. Corresponding concentration-response curves have been established by counting the percentages of cells with ruffles (scale bars: 10 μm). (B) Immunoblot analysis and associated quantification of RAC-GTP level and total RAC expression in NIH 3T3 cells stimulated by EGF (10 ng/mL, 5 min) and pre-incubated or not (−) with NSC23766, A41, or A415 at 10^−5 M for 1 h (∗∗∗p < 0.001 vs. controls without EGF stimulation, ^###p < 0.001 vs. controls with EGF stimulation) (N > 3). (C) Representative surface plasmon resonance (SPR) sensograms of binding of immobilized RAC1 with increasing concentrations of A41 with or without EDTA (20 mM) (N > 3). (D) Representative in vitro nucleotide exchange catalyzed by the DH-PH of TIAM (10 nM) measured by the binding of fluorescent mant-GTP (1 μM) to RAC1 (0.5 μM, preloaded with GDP) in the presence of indicated concentrations of A41 (out of N = 6). Dotted lines correspond to the experimental curves, and continuous lines represent the fit of experimental points. (E) Kobs and Kmax were determined in each condition (N = 6). (F) Predicted binding modes of A4 to the NSC23766-binding site (left) or the GDP-binding pocket of RAC1 (right). In the NSC23766-binding site of RAC1, the compound A4 (carbon atoms in blue) makes 2 hydrogen bonds (green dotted line) with Ser71 (S71) and 10 hydrophobic interactions (pink dotted line) with Ala3 (A3), Lys5 (K5), Val36 (V36), Trp56 (W56), Tyr64 (Y64), and Leu67 (L67) leading to a docking score of −6.03 kcal/mol. The GDP molecule is shown with fine line. The P loop is shown in yellow, the switch 1 in orange, and the switch 2 in green. […]
Pull-down assay using GST-PBD fusion proteins were performed on NIH-3T3 lysates to assess RAC1 activity as previously described.[63] The precipitated active RAC was subjected to SDS-PAGE and detected by immunoblot with anti-RAC1 antibody (BD biosciences) (dilution 1/1000). […]
screening molecules (10^-5 M) on NIH/3T3 cell adhesion (xCELLingence Real-time cellanalysis, Agilent), migration (CYTOO Mobility plates) and proliferation (xCELLingence Real-time cell analysis, Agilent) .The level of RAC activation is determinedby the detection of RAC-GTP (pull-down assay) in NIH/3T3 cell treated with EGF (10 ng/mL) and the differentmolecules and normalize to the level of RAC activity measuredin the presenceof the reference RAC inhibitor EHT1864.

Neuropeptide Y Y1 = Neuropeptide Y Y1 (Homo sapiens, UniProt P25929); experiment: Safety screen; format: binding
Procedure: (§3) Blood cell counts, kinase profiler, safety screen, bacterial cytotoxicity, Ames, micronucleus assays were performed by the company Eurofins (France).

DDR1(h) = DDR1(h) (Homo sapiens, UniProt Q08345); experiment: Kinase Profiler; format: biochemical
Procedure: as §1

EGFR(T790M,L858R)(h) = EGFR(T790M,L858R)(h) (Homo sapiens, UniProt P00533, L858R/T790M); experiment: Kinase Profiler; format: biochemical
Procedure: as §2

CHK2(R145W)(h) = CHK2(R145W)(h) (Homo sapiens, UniProt O96017, R145W); experiment: Kinase Profiler; format: biochemical
Procedure: as §2

MST3(h) = MST3(h) (Homo sapiens, UniProt Q9Y6E0); experiment: Kinase Profiler; format: biochemical
Procedure: as §2

[2] = biological target: Serotonin (5-Hydroxytryptamine) 5-HT2C (Homo sapiens, UniProt P28335); experiment: Safety screen; format: binding
Procedure: as §3

Adenosine A2A, sequence (P29274 whole entry): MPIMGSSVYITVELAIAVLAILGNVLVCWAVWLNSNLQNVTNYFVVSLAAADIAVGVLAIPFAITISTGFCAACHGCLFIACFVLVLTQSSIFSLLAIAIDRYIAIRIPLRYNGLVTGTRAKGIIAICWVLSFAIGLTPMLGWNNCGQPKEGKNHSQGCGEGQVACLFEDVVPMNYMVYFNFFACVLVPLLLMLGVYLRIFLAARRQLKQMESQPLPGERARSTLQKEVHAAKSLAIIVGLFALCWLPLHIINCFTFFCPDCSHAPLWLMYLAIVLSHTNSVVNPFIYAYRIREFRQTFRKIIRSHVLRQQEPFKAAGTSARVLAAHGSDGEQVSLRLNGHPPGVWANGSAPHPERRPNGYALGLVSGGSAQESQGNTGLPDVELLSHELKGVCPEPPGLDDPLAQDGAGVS
PRKG2(h), sequence (Q13237 whole entry): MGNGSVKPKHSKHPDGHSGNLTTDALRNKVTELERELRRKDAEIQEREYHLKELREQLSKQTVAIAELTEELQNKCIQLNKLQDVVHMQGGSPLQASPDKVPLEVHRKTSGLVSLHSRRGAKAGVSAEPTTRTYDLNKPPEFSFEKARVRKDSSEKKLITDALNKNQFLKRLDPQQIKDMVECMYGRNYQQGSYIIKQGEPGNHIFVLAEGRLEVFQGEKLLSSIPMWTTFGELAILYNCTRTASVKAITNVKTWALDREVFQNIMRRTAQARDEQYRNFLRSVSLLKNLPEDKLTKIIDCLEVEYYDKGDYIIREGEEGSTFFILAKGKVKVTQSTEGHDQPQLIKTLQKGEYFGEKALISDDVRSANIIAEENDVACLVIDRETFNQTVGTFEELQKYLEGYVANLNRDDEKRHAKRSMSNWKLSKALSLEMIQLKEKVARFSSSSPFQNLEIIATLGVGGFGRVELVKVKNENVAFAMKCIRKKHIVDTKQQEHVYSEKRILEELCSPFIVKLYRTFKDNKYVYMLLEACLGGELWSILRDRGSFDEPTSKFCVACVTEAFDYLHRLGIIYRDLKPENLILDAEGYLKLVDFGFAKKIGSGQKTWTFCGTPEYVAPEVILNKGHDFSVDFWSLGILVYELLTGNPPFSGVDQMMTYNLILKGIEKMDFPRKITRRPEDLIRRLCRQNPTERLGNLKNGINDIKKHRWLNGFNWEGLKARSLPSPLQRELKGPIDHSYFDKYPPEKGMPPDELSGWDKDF
CHK2(R145W)(h), sequence (O96017 whole entry R145W): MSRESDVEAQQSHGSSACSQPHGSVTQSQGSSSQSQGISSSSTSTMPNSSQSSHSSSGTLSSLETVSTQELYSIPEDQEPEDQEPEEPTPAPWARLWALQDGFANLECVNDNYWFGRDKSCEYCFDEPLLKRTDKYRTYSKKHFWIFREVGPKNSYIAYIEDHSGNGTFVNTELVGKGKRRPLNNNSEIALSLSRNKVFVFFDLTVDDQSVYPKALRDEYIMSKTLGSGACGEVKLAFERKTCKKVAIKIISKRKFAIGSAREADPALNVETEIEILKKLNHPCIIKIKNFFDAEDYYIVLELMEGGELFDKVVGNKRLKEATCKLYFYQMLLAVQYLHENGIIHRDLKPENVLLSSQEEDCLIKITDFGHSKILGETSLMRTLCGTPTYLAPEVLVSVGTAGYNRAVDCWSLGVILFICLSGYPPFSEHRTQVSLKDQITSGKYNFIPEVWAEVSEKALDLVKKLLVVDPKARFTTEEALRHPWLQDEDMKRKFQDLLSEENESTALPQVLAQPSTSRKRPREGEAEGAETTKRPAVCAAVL
LOK(h), sequence (O94804 whole entry): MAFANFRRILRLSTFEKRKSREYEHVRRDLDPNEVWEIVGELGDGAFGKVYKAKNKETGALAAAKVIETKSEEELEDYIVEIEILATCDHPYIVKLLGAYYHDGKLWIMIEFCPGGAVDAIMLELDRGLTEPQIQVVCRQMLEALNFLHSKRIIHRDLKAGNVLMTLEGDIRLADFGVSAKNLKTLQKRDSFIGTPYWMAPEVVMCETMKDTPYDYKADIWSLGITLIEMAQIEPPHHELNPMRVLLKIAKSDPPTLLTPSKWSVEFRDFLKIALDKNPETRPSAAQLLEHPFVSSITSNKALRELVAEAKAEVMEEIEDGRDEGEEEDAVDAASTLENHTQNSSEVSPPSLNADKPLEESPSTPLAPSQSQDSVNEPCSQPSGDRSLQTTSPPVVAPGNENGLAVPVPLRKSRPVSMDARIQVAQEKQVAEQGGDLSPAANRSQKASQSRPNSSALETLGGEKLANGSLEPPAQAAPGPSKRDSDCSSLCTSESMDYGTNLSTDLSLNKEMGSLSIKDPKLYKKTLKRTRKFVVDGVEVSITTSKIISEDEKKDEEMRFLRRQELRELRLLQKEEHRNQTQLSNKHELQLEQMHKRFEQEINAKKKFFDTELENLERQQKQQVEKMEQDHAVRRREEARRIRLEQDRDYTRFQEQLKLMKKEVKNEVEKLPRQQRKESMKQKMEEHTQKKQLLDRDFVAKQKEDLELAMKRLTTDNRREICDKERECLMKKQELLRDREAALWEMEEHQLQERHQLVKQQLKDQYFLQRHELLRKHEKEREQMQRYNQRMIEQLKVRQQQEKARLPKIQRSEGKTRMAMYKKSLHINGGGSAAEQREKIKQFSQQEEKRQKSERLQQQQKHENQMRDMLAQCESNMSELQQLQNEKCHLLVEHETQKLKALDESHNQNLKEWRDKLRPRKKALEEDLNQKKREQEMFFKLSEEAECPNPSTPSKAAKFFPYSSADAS
Potassium Channel [KATP], sequence (Q09427 whole entry): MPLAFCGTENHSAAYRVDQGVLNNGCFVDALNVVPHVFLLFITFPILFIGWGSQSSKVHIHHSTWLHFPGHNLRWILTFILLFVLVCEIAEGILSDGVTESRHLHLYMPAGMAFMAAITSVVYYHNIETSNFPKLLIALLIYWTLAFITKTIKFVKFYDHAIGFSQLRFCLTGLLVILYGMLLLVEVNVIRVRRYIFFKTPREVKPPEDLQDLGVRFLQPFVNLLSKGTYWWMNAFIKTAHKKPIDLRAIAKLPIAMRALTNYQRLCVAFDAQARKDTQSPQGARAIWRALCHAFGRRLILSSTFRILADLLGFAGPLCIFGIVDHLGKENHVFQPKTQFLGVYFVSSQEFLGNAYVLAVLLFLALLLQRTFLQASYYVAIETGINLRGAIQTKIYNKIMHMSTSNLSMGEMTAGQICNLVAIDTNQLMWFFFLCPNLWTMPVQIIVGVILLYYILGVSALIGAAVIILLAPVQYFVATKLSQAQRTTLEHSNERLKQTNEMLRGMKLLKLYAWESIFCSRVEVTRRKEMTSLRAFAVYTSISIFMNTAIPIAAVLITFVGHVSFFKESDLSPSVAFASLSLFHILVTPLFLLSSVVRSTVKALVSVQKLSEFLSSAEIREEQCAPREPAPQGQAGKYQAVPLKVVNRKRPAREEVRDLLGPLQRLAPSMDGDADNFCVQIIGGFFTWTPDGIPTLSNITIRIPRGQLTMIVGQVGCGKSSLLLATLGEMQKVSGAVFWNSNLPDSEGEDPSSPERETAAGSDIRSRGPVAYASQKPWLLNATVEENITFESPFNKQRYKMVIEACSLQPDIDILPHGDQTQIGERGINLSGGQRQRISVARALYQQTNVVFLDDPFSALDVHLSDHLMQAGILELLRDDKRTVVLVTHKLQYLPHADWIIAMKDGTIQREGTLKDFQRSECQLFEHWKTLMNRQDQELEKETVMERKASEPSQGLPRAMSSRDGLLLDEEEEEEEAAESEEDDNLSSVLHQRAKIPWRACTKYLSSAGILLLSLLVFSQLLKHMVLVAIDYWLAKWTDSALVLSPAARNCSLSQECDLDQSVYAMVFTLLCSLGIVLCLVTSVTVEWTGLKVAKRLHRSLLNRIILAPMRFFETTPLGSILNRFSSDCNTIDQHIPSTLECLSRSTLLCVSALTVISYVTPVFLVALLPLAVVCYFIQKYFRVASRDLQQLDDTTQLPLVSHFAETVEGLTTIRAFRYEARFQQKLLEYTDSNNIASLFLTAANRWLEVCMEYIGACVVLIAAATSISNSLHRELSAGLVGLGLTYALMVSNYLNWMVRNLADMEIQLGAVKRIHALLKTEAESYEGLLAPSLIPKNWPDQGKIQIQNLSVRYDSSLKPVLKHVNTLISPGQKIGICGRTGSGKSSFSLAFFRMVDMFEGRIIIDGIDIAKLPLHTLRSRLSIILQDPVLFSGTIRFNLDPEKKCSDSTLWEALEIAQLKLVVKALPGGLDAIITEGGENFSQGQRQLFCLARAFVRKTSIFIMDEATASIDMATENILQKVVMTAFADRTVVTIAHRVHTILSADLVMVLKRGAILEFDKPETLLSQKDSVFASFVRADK
B-Raf(h), sequence (P15056 whole entry): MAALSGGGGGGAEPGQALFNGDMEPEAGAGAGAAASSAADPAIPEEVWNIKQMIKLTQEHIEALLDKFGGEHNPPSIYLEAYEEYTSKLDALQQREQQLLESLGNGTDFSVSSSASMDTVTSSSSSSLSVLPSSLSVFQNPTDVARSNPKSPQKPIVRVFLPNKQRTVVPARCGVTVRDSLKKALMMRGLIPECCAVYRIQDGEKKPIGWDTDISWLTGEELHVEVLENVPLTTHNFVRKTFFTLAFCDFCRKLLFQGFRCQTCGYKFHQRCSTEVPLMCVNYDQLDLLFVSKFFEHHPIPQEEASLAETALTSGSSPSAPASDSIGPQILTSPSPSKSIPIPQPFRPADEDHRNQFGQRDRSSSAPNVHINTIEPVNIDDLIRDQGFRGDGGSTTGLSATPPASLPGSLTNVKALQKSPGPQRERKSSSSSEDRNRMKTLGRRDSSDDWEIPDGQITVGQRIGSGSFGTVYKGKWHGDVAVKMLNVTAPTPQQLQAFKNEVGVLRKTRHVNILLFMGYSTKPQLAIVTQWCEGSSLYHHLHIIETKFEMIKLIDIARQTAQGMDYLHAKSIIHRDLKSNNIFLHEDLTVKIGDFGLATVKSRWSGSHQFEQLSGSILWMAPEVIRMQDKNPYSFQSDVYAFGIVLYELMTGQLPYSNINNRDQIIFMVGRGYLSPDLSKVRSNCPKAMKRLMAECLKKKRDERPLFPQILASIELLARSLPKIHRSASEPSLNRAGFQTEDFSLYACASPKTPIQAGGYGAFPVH

COc1ccc(OC)c(NS(=O)(=O)c2ccc(NC(=O)CCSc3ccc(C)cc3)cc2)c1 [Compound A41]
% inh. (Potassium Channel [KATP]): 11%
Activity(%) (PRKG2(h)): 123%
Activity(%) (B-Raf(h)): 90%
Activity(%) (CK1ε(h)): 108%
Activity(%) (MYLK2(h)): 103%
Activity(%) (DDR2(h)): 114%
Activity(%) (Ret(h)): 104%
% inh. (Adenosine A2A): 16%
% inh. (Calcium Channel N-Type): 3%
% inh. [1]: 52%
Activity(%) (Ros(h)): 139%
Activity(%) (DYRK2(h)): 104%
Activity(%) (Aurora-B(h)): 86%
Activity(%) (LOK(h)): 112%
RAC1 activation (active GTP-bound RAC1) (RAC1): blocked RAC1 activation
% inh. (Neuropeptide Y Y1): -2%
Activity(%) (DDR1(h)): 116%
Activity(%) (EGFR(T790M,L858R)(h)): 104%
Activity(%) (CHK2(R145W)(h)): 92%
Activity(%) (MST3(h)): 95%
% inh. [2]: 56%

Source: publication PMC12281424, “A Rac-specific competitive inhibitor of guanine nucleotide binding reduces metastasis in triple-negative breast cancer” (Cell Reports Medicine, 2025)
